# In publication PMC11820700, “Antioxidant, Enzyme-Inhibitory and Antimicrobial Activity of Underutilized Wheat and Maize Crop Residues” (Plants, 2025):
# “And” between values parts separate entries of the source, which are not always exact repeats. Equal entries are not always repeated. Where two headings read alike, the source gives them in different places. Marks after values point to notes of the source that are not given here.
# Legend:
# [1] = cited from earlier work; for DPPH radical inhibition: concentrations 50–1000 µg/mL, ref Jeong et al. (2010) [24]
# [2] = target: acetylcholinesterase (AChE) from Electrophorus electricus (Electrophorus electricus, UniProt O42275); assay: biochemical
# [3] = system: Escherichia coli ATCC 8739; assay: Broth microdilution MIC; type: cell-based; conditions: for MIC: ATCC8739, 24 h, read-out: Minimal Inhibitory Concentrations MICs
# [4] = system: Bacillus subtilis ATCC 6633; assay: Broth microdilution MIC; type: cell-based; conditions: for Minimal Inhibitory Concentrations MICs: 24 h; for MIC: ATCC6633, 24 h, read-out: Minimal Inhibitory Concentrations MICs
# [5] = target: T1, α-amylase from porcine pancreas (Sus scrofa, UniProt P00690); assay: biochemical; conditions: for IC50: read-out: α-amilase IC50 (converted)
# T1 construct: purchased Merck KGaA (Darmstadt, Germany) type VI-B (catalogue number not given); host or cells: porcine pancreas
# T1 sequence (P00690 16-511): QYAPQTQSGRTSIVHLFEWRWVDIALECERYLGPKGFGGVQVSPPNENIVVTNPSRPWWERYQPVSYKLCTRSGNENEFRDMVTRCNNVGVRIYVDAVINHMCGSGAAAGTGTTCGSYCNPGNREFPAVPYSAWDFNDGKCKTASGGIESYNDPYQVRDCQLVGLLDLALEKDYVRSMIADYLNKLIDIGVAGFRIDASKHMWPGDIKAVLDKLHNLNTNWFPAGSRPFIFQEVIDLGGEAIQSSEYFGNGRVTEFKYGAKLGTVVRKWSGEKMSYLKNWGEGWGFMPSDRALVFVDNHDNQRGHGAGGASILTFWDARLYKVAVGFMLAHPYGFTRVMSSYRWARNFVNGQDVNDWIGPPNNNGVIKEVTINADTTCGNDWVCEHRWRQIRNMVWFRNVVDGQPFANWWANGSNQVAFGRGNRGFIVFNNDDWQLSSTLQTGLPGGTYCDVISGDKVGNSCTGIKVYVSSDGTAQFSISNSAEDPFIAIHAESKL
# tyrosinase from mushroom = type: biochemical
# [6] = ABTS free radical scavenging assay
# [7] = system: Enterococcus faecalis ATCC 29212; assay: Broth microdilution MIC; type: cell-based; conditions: for Minimal Inhibitory Concentrations MICs: 24 h; for MIC: ATCC29212, 24 h, read-out: Minimal Inhibitory Concentrations MICs
# tyrosinase = conditions: cited from earlier work
# [8] = system: Pseudomonas aeruginosa ATCC 9027; assay: Broth microdilution MIC; type: cell-based; conditions: for MIC: ATCC9027, 24 h, read-out: Minimal Inhibitory Concentrations MICs
# [9] = system: Salmonella abony NCTC 6017; assay: Broth microdilution MIC; type: cell-based; conditions: for MIC: Salmonella enterica, NCTC6017, Salmonella abony, 24 h, read-out: Minimal Inhibitory Concentrations MICs
# [10] = FRAP ferric reducing power assay
# [11] = DPPH free radical scavenging assay
# [12] = target: butyrylcholinesterase (BChE) from equine serum (Equus caballus, UniProt P81908); assay: biochemical; type: biochemical
# [13] = system: Staphylococcus aureus ATCC 6538; assay: Broth microdilution MIC; type: cell-based; conditions: extracts 62.5–1000, compounds 31.25–500 µg/mL tested; for MIC: ATCC6538, 24 h, read-out: Minimal Inhibitory Concentrations MICs
# [14] = system: Candida albicans ATCC 10231; assay: Broth microdilution MIC; type: cell-based; conditions: for Minimal Inhibitory Concentrations MICs: 48 h; for MIC: ATCC10231, 48 h, read-out: Minimal Inhibitory Concentrations MICs
# [15] = TRC (total reducing capacity) ferric reducing power assay; conditions: L-ascorbic acid equivalents
# [16] = system: Klebsiella pneumoniae NCIMB 9111; assay: Broth microdilution MIC; type: cell-based; conditions: for MIC: NCIMB9111, 24 h, read-out: Minimal Inhibitory Concentrations MICs
# α-glucosidase = conditions: cited from earlier work
# Gram-negative bacteria = system: Gram-negative bacteria; set-up: method as in Lou et al. (2012) [44]; conditions: ref Lou et al. (2012) [44]; cited from earlier work
# [17] = system: three tested Gram-positive bacteria; set-up: method as in Lou et al. (2012) [44]; conditions: ref Lou et al. (2012) [44]; cited from earlier work
# [18] = system: clinical isolates of both Gram-positive and Gram-negative bacteria; set-up: method as in Alves et al. (2013) [45]; conditions: ref Alves et al. (2013) [45]; cited from earlier work
# α-amylase = conditions: cited from earlier work; for α-amylase IC50: mg/mL figure given in parentheses beside mM; for α-amylase IC50 / IC50: ref Jeong et al. (2012) [29]
# [19] = target: α-glucosidase from bakers’ yeast (Saccharomyces cerevisiae, UniProt P53341); type: biochemical
# [20] = system: methicillin-resistant Staphylococcus aureus (MRSA); conditions: ref Alves et al. (2013) [45]; cited from earlier work
# [21] = set-up: method as in Glišić et al. (2024) [4]; conditions: ref Glišić et al. (2024) [4]; cited from earlier work
# [22] = set-up: method as in Glišić et al. (2024) [4]; conditions: ref Glišić et al. (2024) [4]; cited from earlier work; remark: listed apart in the source
# [23] = set-up: method as in Glišić et al. (2024) [4]; conditions: ref Glišić et al. (2024) [4]; cited from earlier work; remark: listed apart in the source
# [24] = target: acetylcholinesterase (AChE); conditions: cited from earlier work
# [25] = cited from earlier work
# [26] = isolated from medicinal rice (Oryza sativa L.), ref Mohanlal et al. (2011) [7]
# [27] = mg/mL figure given in parentheses beside mM, ref Jeong et al. (2012) [29]
# acetylcholinesterase (AChE) from Electrophorus electricus, sequence (O42275 24-633 limits assumed): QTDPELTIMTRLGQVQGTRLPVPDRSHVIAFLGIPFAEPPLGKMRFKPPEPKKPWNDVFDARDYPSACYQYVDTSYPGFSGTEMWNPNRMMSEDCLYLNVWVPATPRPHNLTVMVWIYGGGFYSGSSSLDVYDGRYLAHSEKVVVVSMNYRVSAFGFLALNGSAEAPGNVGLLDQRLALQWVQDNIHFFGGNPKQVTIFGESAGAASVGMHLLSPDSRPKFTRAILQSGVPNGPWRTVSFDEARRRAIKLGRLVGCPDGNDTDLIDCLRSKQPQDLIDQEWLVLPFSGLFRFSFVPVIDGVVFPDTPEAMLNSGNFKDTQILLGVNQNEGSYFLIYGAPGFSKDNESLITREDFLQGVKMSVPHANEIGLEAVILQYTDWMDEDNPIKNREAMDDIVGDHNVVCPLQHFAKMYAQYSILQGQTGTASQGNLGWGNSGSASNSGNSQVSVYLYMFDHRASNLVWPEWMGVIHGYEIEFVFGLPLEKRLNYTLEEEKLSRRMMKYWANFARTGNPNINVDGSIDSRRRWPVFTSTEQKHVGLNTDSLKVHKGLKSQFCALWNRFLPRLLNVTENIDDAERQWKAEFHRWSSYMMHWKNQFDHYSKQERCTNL
# butyrylcholinesterase (BChE) from equine serum, sequence (P81908 whole entry, looked up): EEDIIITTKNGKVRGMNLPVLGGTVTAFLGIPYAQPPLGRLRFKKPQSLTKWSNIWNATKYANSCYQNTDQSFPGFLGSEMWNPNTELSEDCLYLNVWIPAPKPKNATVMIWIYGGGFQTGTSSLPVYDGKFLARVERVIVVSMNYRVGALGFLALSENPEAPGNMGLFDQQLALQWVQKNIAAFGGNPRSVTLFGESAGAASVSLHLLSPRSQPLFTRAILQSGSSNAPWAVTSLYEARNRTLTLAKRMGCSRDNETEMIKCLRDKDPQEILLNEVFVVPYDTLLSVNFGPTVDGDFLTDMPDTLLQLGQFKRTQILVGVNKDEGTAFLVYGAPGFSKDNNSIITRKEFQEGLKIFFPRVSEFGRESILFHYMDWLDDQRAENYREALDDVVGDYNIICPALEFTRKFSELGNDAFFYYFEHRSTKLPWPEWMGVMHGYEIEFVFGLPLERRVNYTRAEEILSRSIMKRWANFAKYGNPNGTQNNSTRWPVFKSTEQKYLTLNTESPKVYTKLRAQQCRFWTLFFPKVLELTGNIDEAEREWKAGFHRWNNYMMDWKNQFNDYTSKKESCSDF
# α-glucosidase from bakers’ yeast, sequence (P53341 whole entry, looked up): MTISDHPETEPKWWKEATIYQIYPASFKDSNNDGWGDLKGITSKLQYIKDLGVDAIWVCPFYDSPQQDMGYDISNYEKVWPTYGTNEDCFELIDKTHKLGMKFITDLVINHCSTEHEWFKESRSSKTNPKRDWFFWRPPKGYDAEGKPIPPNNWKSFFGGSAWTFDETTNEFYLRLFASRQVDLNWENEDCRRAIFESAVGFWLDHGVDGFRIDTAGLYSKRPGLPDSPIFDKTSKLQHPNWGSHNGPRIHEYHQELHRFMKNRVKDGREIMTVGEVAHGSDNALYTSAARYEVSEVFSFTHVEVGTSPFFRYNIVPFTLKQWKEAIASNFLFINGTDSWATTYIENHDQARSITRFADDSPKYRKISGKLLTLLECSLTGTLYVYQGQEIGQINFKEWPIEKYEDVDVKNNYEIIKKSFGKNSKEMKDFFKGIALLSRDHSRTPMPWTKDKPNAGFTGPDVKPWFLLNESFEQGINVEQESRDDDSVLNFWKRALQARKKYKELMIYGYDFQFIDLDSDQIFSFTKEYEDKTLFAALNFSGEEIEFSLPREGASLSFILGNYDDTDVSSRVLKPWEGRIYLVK
smiles,measurement,setting,value
"COc1cc(C(O)C(CO)Oc2c(OC)cc(-c3cc(=O)c4c(O)cc(O)cc4o3)cc2OC)ccc1O (stereo not drawn) [salcolin A, tricin 4′-O-(threo-β-guaiacylglyceryl)ether]",DPPH IC50,[1]; [26],208.1 µg/mL
"COc1cc(-c2cc(=O)c3c(O)cc(O)cc3o2)cc(OC)c1O [TRN, 5,7,4′-trihydroxy-3′,5′-dimethoxyflavone]",IC50,[2],8.72 mM
same,MIC,[3],> 500 µg/mL
same,Minimal Inhibitory Concentrations MICs,[4],31.25 µg/mL
same,MIC,[4],31.2 µg/mL
same,IC50,[5],5.84 mM
same,Tyr IC50,tyrosinase from mushroom,did not exhibit inhibitory activity within the tested concentration range
same,ABTS IC50,[6],0.46 ± 0.01 ^a mg/mL
same,Minimal Inhibitory Concentrations MICs,[7],31.25 µg/mL
same,MIC,[7],31.2 µg/mL
same,tyrosinase IC50,tyrosinase; ref [38],269.46 µg/mL
same,MIC,[8],> 500 µg/mL
same,MIC,[9],> 500 µg/mL
same,DPPH IC50,[1]; [26],90.39 µg/mL
same,FRAP,[10],0.34 ± 0.01 ^d µmol Fe^2+/g
same,DPPH IC50,[11],1.71 ± 0.15 ^b mg/mL
same,IC50,[12],1.67 mM
same,MIC,[13],62.5 µg/mL
same,Minimal Inhibitory Concentrations MICs,[14],250 µg/mL
same,MIC,[14],250 µg/mL
same,TRC,[15],312.08 ± 12.44 ^d mg L-AAE/g
same,MIC,[16],> 500 µg/mL
"O=C(O)/C=C/c1ccc(O)cc1 [p-CA, p-coumaric acid]",IC50,[2],63.3 mM
same,MIC,[3],> 500 µg/mL
same,α-glucosidase IC50,α-glucosidase; [27],> 4920 µg/mL
same,IC50,α-glucosidase; ref Jeong et al. (2012) [29],> 30 mM
same,α-glucosidase IC50,α-glucosidase; ref Nile and Park (2014) [34],90.8 µg/mL
same,Minimal Inhibitory Concentrations MICs,[4],31.25 µg/mL
same,MIC,[4],31.2 µg/mL
same,IC50,[5],167 mM
same,MIC,Gram-negative bacteria,10 to 80 µg/mL
same,MIC,[17],20 µg/mL
same,ABTS IC50,[6],0.0256 ± 0.0012 ^c mg/mL
same,MIC,[18],≥ 1000 µg/mL
same,Minimal Inhibitory Concentrations MICs,[7],31.25 µg/mL
same,MIC,[7],31.2 µg/mL
same,MIC,[8],> 500 µg/mL
same,α-amylase IC50,α-amylase,> 4920 µg/mL
same,IC50,α-amylase,> 30 mM
same,MIC,[9],> 500 µg/mL
same,DPPH radical inhibition,[1],10.3–26.9%
same,FRAP,[10],0.92 ± 0.02 ^c µmol Fe^2+/g
same,DPPH IC50,[11],2.96 ± 0.16 ^a mg/mL
same,MIC,[13],62.5 µg/mL
same,Minimal Inhibitory Concentrations MICs,[14],250 µg/mL
same,MIC,[14],250 µg/mL
same,TRC,[15],1810.89 ± 116.14 ^b mg L-AAE/g
same,TRC,[15]; listed as p-Coumaric acid,1810.89 mg L-AAE/g
same,MIC,[16],> 500 µg/mL
O=c1c(O)c(-c2ccc(O)c(O)c2)oc2cc(O)cc(O)c12 [quercetin],DPPH IC50,[1]; [26],42.98 µg/mL
"C[C@H]1O[C@H](O[C@H]2[C@H](O)[C@@H](O)[C@@H](O[C@H]3[C@H](O)[C@@H](O)C(O)O[C@@H]3CO)O[C@@H]2CO)[C@H](O)[C@@H](O)[C@@H]1N[C@H]1C=C(CO)[C@@H](O)[C@H](O)[C@H]1O (stereo partly drawn) [ACB, acarbose, reference compound]",α-glucosidase inhibition,"α-glucosidase; at 0.44 mg/mL, ref [33]",62%
same,α-glucosidase inhibition,"α-glucosidase; at 1.5 mg/mL, ref [29]",70.2%
same,α-amylase inhibition,"α-amylase; at 1.5 mg/mL, ref [29]",59.3%
"COc1cc(/C=C/C(=O)O)ccc1O [FA, ferulic acid]",AChE IC50,[2],4.10 ± 0.37 ^c mg/mL
same,Minimal Inhibitory Concentrations MICs,[3]; 24 h,>500 µg/mL
same,α-glucosidase IC50,α-glucosidase; [27],950 µg/mL
same,IC50,α-glucosidase; ref Jeong et al. (2012) [29],4.9 mM
same,α-glucosidase IC50,α-glucosidase; ref Nile and Park (2014) [34],251.4 µg/mL
same,Minimal Inhibitory Concentrations MICs,[4],62.5 µg/mL
same,α-amilase IC50,[5],3.35 ± 0.85 ^b mg/mL
same,α-glucosidase IC50,[19],1.49 ± 0.18 ^a mg/mL
same,ABTS IC50,[6],0.0034 ± 0.0001 ^d mg/mL
same,MIC,[18],≥ 1000 µg/mL
same,Minimal Inhibitory Concentrations MICs,[7],125 µg/mL
same,Minimal Inhibitory Concentrations MICs,[8]; 24 h,>500 µg/mL
same,MIC,[20],500 µg/mL
same,α-amylase IC50,α-amylase,1840 µg/mL
same,IC50,α-amylase,9.5 mM
same,Minimal Inhibitory Concentrations MICs,[9],>500 µg/mL
same,DPPH radical inhibition,[1],84.3–92.3%
same,FRAP,[10],2.02 ± 0.04 ^a µmol Fe^2+/g
same,FRAP,[10]; listed as ferulic acid,2.02 µmol Fe^2+/g
same,DPPH IC50,[11],0.0068 ± 0.0001 ^c mg/mL
same,BChE IC50,[12],1.97 ± 0.08 ^c mg/mL
same,Minimal Inhibitory Concentrations MICs,[13]; 24 h,62.5 µg/mL
same,Minimal Inhibitory Concentrations MICs,[14],>500 µg/mL
same,TRC,[15],2467.90 ± 91.26 ^a mg L-AAE/g
same,TRC,[15]; listed as ferulic acid,2467.90 mg L-AAE/g
same,Minimal Inhibitory Concentrations MICs,[16]; 24 h,>500 µg/mL
"O=C1O[C@H]([C@@H](O)CO)C(O)=C1O [L-AA, L-ascorbic acid]",FRAP,[21],1.618 ± 0.004 ^e µmol Fe^2+/g and 1.618 ± 0.004 ^b µmol Fe^2+/g
same,DPPH IC50,[22],0.0057 ± 0.0003 ^f mg/mL
same,DPPH IC50,[1]; ref Barnawi et al. (2023) [28],2.51 µg/mL
same,DPPH IC50,[1]; ref Dewi et al. (2021) [15],3.55 µg/mL
same,DPPH IC50,[1]; ref Elemosho et al. (2021) [26],4630 µg/mL
same,ABTS IC50,[23],0.0316 ± 0.0003 ^e mg/mL
O=c1cc(-c2cc(O)c(O)c(O)c2)oc2cc(O)cc(O)c12 [tricetin],AChE IC50,[24]; ref Kuppusamy et al. (2017) [40],18.28 µg/mL
"COc1cc([C@H](O)[C@H](CO)Oc2c(OC)cc(-c3cc(=O)c4c(O)cc(O)cc4o3)cc2OC)ccc1O [salcolin B, tricin 4′-O-(erythro-β-guaiacylglyceryl)ether]",DPPH IC50,[1]; [26],352.04 µg/mL
"COc1ccc2cc3[n+](cc2c1OC)CCc1cc2c(cc1-3)OCO2 [berberine, reference compound]",AChE IC50,[24]; ref Sim et al. (2014) [39],1.5 µg/mL
"O=C(O)CC1C(=O)Nc2cccc(O)c21 (stereo not drawn) [tasselin A, 4-hydroxy-1-oxindole-3-acetic acid]",IC50,tyrosinase; ref Wille and Berhow (2011) [37],0.75 mM
"Cc1cc(C(C)(C)C)c(O)c(C(C)(C)C)c1 [BHT, butylated hydroxytoluene]",ABTS radicals scavenged,"[25]; at 0.2 mg/mL, ref [27]",50.32%
same,ABTS IC50,[25]; ref Yang et al. (2024) [20],140 µg/mL
same,FRAP,[21],0.41 µmol Fe^2+/g and 0.41 ± 0.03 ^c µmol Fe^2+/g and 0.41 ± 0.03 ^d µmol Fe^2+/g
same,DPPH IC50,[22],0.038 ± 0.001 ^e mg/mL
same,DPPH radicals scavenged,"[1]; at 0.2 mg/mL, ref [27]",47.32%
same,DPPH radical inhibition,[1],73.9–90.7%
same,DPPH IC50,"[1]; methanol extracts from unfermented straw, ref Đorđević et al. (2019) [12]",50 µg/mL
same,DPPH IC50,[1]; ref Yang et al. (2024) [20],150 µg/mL
same,ABTS IC50,[23],0.040 ± 0.002 ^e mg/mL
same,TRC,[15],615.02 ± 38.87 ^c mg L-AAE/g
